Data reported in ChEMBL document CHEMBL4177651, “RNA as a small molecule druggable target” (Bioorg Med Chem Lett, 2017).

Legend:
[1] = Binding affinity to Aspergillus oryzae RNA TPP riboswitch after 40 hrs by SDS-PAGE analysis; details: read-out: Kd(app)
[2] = Binding affinity to 1A1 Bacillus subtilis 179 lysC RNA lysine riboswitch by probing analysis; details: read-out: Kd(app)
Quadruplex DNA = assay: Binding affinity to biotin-labeled c-Myc Pu22 G-quadruplex DNA (unknown origin) assessed as […] by surface plasmon resonance assay; type: nucleic-acid assay
[3] = Inhibition of [gamma-32P]ATP labelled (CUG)4 RNA (unknown origin) binding to recombinant His6-tagged MBNL1N (1 to 272 residues) after 10 -15 mins incubation in presence of tRNA by SDS-PAGE analysis
Hepatitis C virus = assay: Antiviral activity against Hepatitis C virus genotype 1b infected in BM4-5 FEO replicon cells after 48 hrs by bright-glo luciferase reporter gene assay; type: functional, organism-based, Hepacivirus hominis; details: BM4-5, 48 h
[4] = Binding affinity to 1A1 Bacillus subtilis xpt-pbuX RNA guanine riboswitch; details: read-out: Kd(app)
[5] = Inhibition of poly(CUG) RNA (unknown origin) splicing expressed in human Hela cells assessed as decrease in toxicity after 24 hrs by WST-1 assay; type: cell-based
[6] = Inhibition of poly(CUG) RNA (unknown origin) binding to recombinant N-terminal PL-MBNL1 preincubated for 30 mins followed by protein addition after 1 hr in presence of tRNA by enzyme fragment complementation assay
[7] = Binding affinity to Bacillus subtilis ribD RNA FMN riboswitch after 40 to 48 hrs by SDS-PAGE analysis; details: read-out: Kd(app)
[8] = Binding affinity bacterial RNA purine riboswitch sequence by isothermal titration calorimetry; set-up: species or system Bacteria; details: read-out: Kd(app)

With Cc1ncc(C[n+]2cccc(CCO)c2C)c(N)n1 the Kd [1] was 20 nM.

Compound NCCS(=O)(=O)C[C@H](N)C(=O)O has a Kd [2] of 2500 nM.

Work on Cc1ccc(NC(=O)c2c(C)oc3ccc(O)c(CN4CCCCCC4)c23)cc1 yielded a Kd (Quadruplex DNA) of 4500 nM.

With COc1ccc2nc3cc(Cl)ccc3c(NCCCCNc3nc(N)nc(N)n3)c2c1 the Ki [3] was 52000 nM.

CC(=O)c1ccc(C(=O)N[C@@H](CCCCN)C(=O)N2C[C@H](N)C[C@H](N)C2)cc1 showed an IC50 (Hepatitis C virus) of 10000 nM.

ONc1ncnc2[nH]cnc12 showed a Kd [4] of 20 nM.

With Nc1cccc(-c2nc3cc(-c4ccc5[nH]c(-c6cccc(N)c6)nc5c4)ccc3[nH]2)c1 the Ki [5] was 50000 nM.

Compound CN(C(=O)[C@@H]1CCCN1C(=O)c1ccc2c(c1)OCO2)[C@@H](CS)C(=O)N[C@@H](CCCCN)C(=O)NCCCN has a Ki [6] of 3000 nM.

With Cc1cc2nc3c(=O)[nH]c(=O)nc-3n(C[C@@H](O)[C@@H](O)[C@@H](O)CO)c2cc1N(C)C the Kd [7] was 100 nM.

Work on O=C(Nc1ccc(-c2nc3ccccc3[nH]2)cc1)c1ccc(-c2ccc(Cl)cc2)o1 yielded a Ki [5] of 128000 nM.

With Nc1nc(N)c2nc[nH]c2n1 [2,6-DIAMINOPURINE] the Kd [8] was 4 nM.
